Reference: ChEMBL document CHEMBL5523769, “Discovery of Novel Nonpeptidic and Noncovalent Small Molecule 3CLpro Inhibitors as anti-SARS-CoV-2 Drug Candidate” (J Med Chem, 2024)

Experiments:
[1] = Cytotoxicity against African green monkey Vero E6 cells incubated for 24 hrs by CCK8 assay; assay type: toxicity, cell-based, Vero C1008; details: chlorocebus sabaeus
[2] = target: T1, Replicase polyprotein 1ab (Severe acute respiratory syndrome coronavirus 2, UniProt P0DTD1)
[3] = target: Replicase polyprotein 1ab (Severe acute respiratory syndrome coronavirus 2) (UniProt P0DTD1); details: dose 31.25-1000 nM, time 100.0 sec
[4] = target: T1, Replicase polyprotein 1ab; remark: listed apart in the source
[5] = target: T1, Replicase polyprotein 1ab; remark: listed apart in the source
[6] = target: Replicase polyprotein 1ab (Severe acute respiratory syndrome coronavirus 2) (UniProt P0DTD1); details: dose 31.25-1000 nM, time 100.0 sec; remark: listed apart in the source
[7] = target: T2, Calpain-1 catalytic subunit (Homo sapiens, UniProt P07384); test: Inhibition of human Calpain 1 using N-Suc-Leu-Leu-Val-Tyr-7-AMC as substrate incubated for 10 mins by FRET-enzymatic assay
T2 sequence (P07384 whole entry): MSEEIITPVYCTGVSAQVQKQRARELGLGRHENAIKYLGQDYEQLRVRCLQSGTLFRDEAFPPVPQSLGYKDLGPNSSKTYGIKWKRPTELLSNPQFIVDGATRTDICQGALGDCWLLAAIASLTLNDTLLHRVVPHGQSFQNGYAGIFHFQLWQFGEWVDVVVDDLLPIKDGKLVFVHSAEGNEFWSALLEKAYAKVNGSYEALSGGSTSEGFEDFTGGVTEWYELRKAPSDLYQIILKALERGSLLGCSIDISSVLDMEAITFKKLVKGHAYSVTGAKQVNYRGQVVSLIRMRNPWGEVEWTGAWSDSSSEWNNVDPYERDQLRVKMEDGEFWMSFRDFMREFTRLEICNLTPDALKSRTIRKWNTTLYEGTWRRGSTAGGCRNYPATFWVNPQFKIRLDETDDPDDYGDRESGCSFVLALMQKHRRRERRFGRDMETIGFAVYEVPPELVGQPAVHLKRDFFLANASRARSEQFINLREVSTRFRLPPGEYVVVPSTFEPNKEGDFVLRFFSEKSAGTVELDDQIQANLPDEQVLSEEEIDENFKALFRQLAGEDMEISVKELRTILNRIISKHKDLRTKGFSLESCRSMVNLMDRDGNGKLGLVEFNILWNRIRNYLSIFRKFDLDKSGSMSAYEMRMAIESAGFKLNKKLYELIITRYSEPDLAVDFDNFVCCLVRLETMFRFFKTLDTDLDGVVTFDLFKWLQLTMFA

Cathepsin B = Cathepsin B (Homo sapiens, UniProt P07858); test: Inhibition of human Cathepsin B using CBZ-Arg-Arg-AMC as substrate incubated for 10 mins by FRET-enzymatic assay
Cathepsin D = Cathepsin D (Homo sapiens, UniProt P07339); test: Inhibition of human Cathepsin D using MCA-PLGL-Dap(Dnp)-AR-NH2 as substrate incubated for 10 mins by FRET-enzymatic assay
Cathepsin K = target: T3, Cathepsin K (Homo sapiens, UniProt P43235); test: Inhibition of human Cathepsin K using Z-Phe-Arg-AMC as substrate incubated for 10 mins by FRET-enzymatic assay
T3 sequence (P43235 whole entry): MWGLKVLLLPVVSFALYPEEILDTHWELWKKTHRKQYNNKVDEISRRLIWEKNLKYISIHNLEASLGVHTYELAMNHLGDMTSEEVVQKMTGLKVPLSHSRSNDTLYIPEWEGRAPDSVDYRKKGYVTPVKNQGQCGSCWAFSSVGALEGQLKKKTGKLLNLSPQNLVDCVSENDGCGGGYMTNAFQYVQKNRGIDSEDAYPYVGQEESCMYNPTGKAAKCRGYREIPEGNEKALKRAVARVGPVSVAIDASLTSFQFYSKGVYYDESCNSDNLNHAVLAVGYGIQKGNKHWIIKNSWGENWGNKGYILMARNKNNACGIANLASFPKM

Procathepsin L = Procathepsin L (Homo sapiens, UniProt P07711); test: Inhibition of human Cathepsin L using Z-Phe-Arg-AMC as substrate incubated for 10 mins by FRET-enzymatic assay
Trypsin = Trypsin (Homo sapiens, UniProt P07477+P07478+P35030); test: Inhibition of human trypsin using CBZ-Arg-Arg-AMC as substrate incubated for 10 mins by FRET-enzymatic assay; assay type: protein assay
Prothrombin = Prothrombin (Homo sapiens, UniProt P00734); test: Inhibition of human thrombin using benzoyl-FVR-AMC as substrate incubated for 10 mins by FRET-enzymatic assay
Proteasome = assay type: subcellular, Homo sapiens
Dipeptidyl peptidase 4 = Dipeptidyl peptidase 4 (Homo sapiens, UniProt P27487); test: Inhibition of human DPP-4 using Gly-Pro-AMC as substrate incubated for 10 mins by FRET-enzymatic assay
Caspase-3 = target: T4, Caspase-3 (Homo sapiens, UniProt P42574); test: Inhibition of human Caspase-3 activity using Ac-DEVD-pNA as substrate incubated for 5 mins by FRET-enzymatic assay
T4 sequence (P42574 whole entry): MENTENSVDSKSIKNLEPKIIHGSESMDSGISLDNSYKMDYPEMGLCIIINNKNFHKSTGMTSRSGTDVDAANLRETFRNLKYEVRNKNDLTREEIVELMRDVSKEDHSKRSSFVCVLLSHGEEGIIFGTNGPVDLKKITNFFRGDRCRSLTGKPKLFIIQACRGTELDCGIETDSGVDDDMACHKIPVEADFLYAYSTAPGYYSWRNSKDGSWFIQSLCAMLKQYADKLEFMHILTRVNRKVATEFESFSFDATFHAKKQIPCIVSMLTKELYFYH

[8] = Inhibition of Bat coronavirus WIV-1 3CLpro by FRET-enzymatic assay
[9] = Inhibition of MERS-CoV 3CLpro by FRET-enzymatic assay; parameters: species or system Middle East respiratory syndrome-related coronavirus
[10] = Inhibition of HCov-OC43 3CLpro by FRET-enzymatic assay; parameters: species or system Human coronavirus OC43
[11] = target: Replicase polyprotein 1ab (Human coronavirus 229E, UniProt P0C6X1); test: Inhibition of HCov-229E 3CLpro by FRET-enzymatic assay
[12] = Inhibition of Bat coronavirus HKU9 3CLpro by FRET-enzymatic assay; parameters: species or system Rousettus bat coronavirus HKU9
[13] = Inhibition of porcine delta coronavirus 3CLpro by FRET-enzymatic assay; parameters: species or system Porcine deltacoronavirus
3C-like protease = 3C-like protease (Infectious bronchitis virus, UniProt Q3Y5H1); test: Inhibition of Infectious bronchitis virus 3CLpro by FRET-enzymatic assay
[14] = Inhibition of mouse hepatitis virus 3CLpro by FRET-enzymatic assay; parameters: species or system Murine hepatitis virus
[15] = Tmax in ICR mouse at 20 mg/kg, po; assay type: ADME, organism-based; details: in vivo
[16] = Half-life in ICR mouse at 20 mg/kg, po; assay type: ADME, organism-based; details: in vivo
[17] = Cmax in ICR mouse at 20 mg/kg, po; assay type: ADME, organism-based; details: in vivo
[18] = AUC (0 to infinity) in ICR mouse at 20 mg/kg, po; assay type: ADME, organism-based; details: in vivo
[19] = AUClast in ICR mouse at 20 mg/kg, po; assay type: ADME, organism-based; details: in vivo
[20] = Observed MRT (0 to infinity) in ICR mouse at 20 mg/kg, po; assay type: ADME, organism-based; details: in vivo
[21] = Acute toxicity in mouse at 500 mg/kg, po administered twice a day for 5 days; assay type: organism-based; details: in vivo, 120 h, time 5 day
[22] = Acute toxicity in mouse assessed as animal death at 500 mg/kg, po administered twice a day for 5 days; assay type: organism-based; details: in vivo, 120 h, time 5 day
[23] = Acute toxicity in mouse assessed as body weight change at 500 mg/kg, po administered twice a day for 5 days; assay type: organism-based; details: in vivo, 120 h, time 5 day

Sequence of Dipeptidyl peptidase 4 (P27487 whole entry): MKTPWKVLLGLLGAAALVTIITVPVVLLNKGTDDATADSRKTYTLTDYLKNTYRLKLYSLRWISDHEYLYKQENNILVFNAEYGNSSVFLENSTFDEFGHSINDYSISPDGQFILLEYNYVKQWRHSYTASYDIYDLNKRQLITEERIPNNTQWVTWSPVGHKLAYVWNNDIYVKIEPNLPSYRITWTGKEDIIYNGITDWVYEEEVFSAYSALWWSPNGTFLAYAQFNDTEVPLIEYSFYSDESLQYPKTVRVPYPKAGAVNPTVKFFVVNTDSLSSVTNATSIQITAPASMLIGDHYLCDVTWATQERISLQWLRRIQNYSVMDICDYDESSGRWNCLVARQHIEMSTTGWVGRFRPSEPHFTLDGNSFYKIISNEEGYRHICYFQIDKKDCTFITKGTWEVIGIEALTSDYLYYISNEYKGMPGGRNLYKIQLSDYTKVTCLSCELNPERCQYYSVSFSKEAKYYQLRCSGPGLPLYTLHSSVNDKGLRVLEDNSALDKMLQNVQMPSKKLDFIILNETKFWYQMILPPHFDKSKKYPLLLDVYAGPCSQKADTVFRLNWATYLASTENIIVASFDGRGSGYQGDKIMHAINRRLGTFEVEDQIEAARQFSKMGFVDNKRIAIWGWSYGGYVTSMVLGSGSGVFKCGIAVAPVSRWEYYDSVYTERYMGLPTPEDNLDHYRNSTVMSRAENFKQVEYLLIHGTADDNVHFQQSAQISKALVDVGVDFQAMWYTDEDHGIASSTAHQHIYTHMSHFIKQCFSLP
Sequence of 3C-like protease (Q3Y5H1 whole entry): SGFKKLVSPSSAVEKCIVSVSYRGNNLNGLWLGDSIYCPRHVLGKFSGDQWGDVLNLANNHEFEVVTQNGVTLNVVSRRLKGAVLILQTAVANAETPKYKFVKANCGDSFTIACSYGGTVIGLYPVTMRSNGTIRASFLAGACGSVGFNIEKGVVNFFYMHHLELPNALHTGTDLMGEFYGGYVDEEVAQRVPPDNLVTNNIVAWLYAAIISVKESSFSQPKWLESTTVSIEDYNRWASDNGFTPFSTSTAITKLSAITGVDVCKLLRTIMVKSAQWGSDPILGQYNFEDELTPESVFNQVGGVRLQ
Sequence of Replicase polyprotein 1ab (Human coronavirus 229E, UniProt P0C6X1) (P0C6X1 2966-3267 limits assumed): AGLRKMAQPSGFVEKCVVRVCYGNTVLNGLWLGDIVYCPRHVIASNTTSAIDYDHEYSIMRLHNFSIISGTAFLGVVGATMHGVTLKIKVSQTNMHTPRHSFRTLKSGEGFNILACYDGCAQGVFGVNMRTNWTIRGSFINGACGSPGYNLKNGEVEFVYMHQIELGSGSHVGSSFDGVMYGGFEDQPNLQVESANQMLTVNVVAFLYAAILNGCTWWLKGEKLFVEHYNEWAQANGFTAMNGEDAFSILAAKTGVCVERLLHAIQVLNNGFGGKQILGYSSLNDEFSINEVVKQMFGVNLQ
Sequence of Cathepsin D (P07339 65-162 limits assumed): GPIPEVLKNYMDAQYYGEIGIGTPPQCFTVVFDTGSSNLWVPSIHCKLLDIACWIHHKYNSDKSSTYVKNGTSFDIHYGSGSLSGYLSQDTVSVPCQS
Sequence of Cathepsin D (P07339 169-412 limits assumed): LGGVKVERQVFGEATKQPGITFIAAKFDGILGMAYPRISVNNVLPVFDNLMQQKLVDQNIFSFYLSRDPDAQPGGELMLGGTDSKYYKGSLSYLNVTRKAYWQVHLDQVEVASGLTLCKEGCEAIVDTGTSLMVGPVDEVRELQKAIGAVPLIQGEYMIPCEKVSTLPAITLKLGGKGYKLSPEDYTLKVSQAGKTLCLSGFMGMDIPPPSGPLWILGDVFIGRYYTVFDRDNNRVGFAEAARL
Sequence of Procathepsin L (P07711 whole entry): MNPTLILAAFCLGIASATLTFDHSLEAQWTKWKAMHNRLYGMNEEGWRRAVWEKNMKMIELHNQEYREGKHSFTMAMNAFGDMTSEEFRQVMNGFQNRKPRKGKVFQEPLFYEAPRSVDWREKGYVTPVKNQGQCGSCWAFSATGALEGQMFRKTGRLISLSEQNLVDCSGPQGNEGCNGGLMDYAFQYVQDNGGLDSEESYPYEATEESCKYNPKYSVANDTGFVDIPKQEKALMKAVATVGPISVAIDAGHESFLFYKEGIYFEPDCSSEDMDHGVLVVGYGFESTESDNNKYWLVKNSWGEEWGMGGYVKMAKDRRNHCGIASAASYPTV

In the case of `CNC(=O)c1cc(Br)cc([N+](=O)[O-])c1N[C@@H]1CCCC[C@@H]1NC(=O)c1cc(=O)[nH]c2ccc(F)cc12`, the CC50 at 24 h [1] is reported as over 200000 nM and the IC50 [2] is reported as 58.2 nM.

Compound `O=C(c1cc(=O)[nH]c2ccccc12)N1CCN(c2ccc(Cl)c(Cl)c2)CC1CN1CCOCC1` (configuration not stated) has a CC50 at 24 h [1] of 381000 nM, a K [3] of 0.028 s⁻¹ and an IC50 [4] of 150 nM. The IC50 [2] was 150 nM and the Kd [5] was 117 nM.

`CNC(=O)c1cc(C2CC2)cc([N+](=O)[O-])c1N[C@@H]1CCCC[C@@H]1NC(=O)c1cc(=O)[nH]c2ccccc12` showed a CC50 at 24 h [1] of over 200000 nM and an IC50 [2] of 20.7 nM.

With `COc1ccc2[nH]c(=O)cc(C(=O)N[C@H]3CCCC[C@H]3Nc3c(C(=O)N4CCOCC4)cc(C4CC4)cc3[N+](=O)[O-])c2c1` the CC50 at 24 h [1] was over 200000 nM and the IC50 [2] was 10.6 nM.

In the case of `CN1CCN(C(=O)c2cc(Br)cc([N+](=O)[O-])c2N[C@@H]2CCCC[C@@H]2NC(=O)c2cc(=O)[nH]c3c(F)cccc23)CC1`, the CC50 at 24 h [1] is reported as over 200000 nM, the K [6] is reported as 3.8 10^5/M/s and the K [3] is reported as 0.007 s⁻¹. The IC50 [7] was over 100000 nM, the IC50 (Cathepsin B) was over 100000 nM and the IC50 (Cathepsin D) was over 100000 nM. The IC50 (Cathepsin K) was over 100000 nM, the IC50 (Procathepsin L) was over 100000 nM and the IC50 (Trypsin) was over 100000 nM. The IC50 (Prothrombin) was over 100000 nM, the IC50 (Proteasome) was over 100000 nM and the IC50 (Dipeptidyl peptidase 4) was over 100000 nM. For the same compound, the IC50 (Caspase-3) was over 100000 nM, the IC50 [8] was 86 nM and the IC50 [9] was 1680 nM. For the same compound, the IC50 [10] was 940 nM, the IC50 [11] was 2560 nM and the IC50 [12] was 402 nM. It also gave an IC50 [13] of over 10000 nM, an IC50 (3C-like protease) of over 10000 nM and an IC50 [14] of over 10000 nM. The Tmax [15] was 0.05 h, the half-life [16] was 1.21 h and the Cmax [17] was 76.3 ng/mL. The AUC(0-inf) [18] was 77.7 ng·h/mL, the AUC(0-t) [19] was 70.6 ng·h/mL and the MRT inf [20] was 1.44 h. The Activity [21] was “Non-Toxic”, the Activity [22] was “Non-Toxic” and the Activity [23] was “Non-Toxic”. It also gave an IC50 [2] of 21.1 nM and a Kd [5] of 18.4 nM.

For `CNC(=O)c1cc(Br)cc([N+](=O)[O-])c1N[C@@H]1CCCC[C@@H]1NC(=O)c1cc(=O)[nH]c2ccccc12`, the CC50 at 24 h [1] was over 200000 nM, the K [6] was 2.1 10^5/M/s and the K [3] was 0.019 s⁻¹. The Tmax [15] was 0.25 h, the half-life [16] was 3.85 h and the Cmax [17] was 11.3 ng/mL. For the same compound, the AUC(0-inf) [18] was 29.9 ng·h/mL, the AUC(0-t) [19] was 23.6 ng·h/mL and the MRT inf [20] was 5.09 h. It also gave an IC50 [2] of 40.8 nM and a Kd [5] of 8.9 nM.

In the case of `O=C(N[C@H]1CCCC[C@H]1Nc1c(C(=O)N2CCOCC2)cc(C2CC2)cc1[N+](=O)[O-])c1cc(=O)[nH]c2ccccc12`, the CC50 at 24 h [1] is reported as over 200000 nM and the IC50 [2] is reported as 9.6 nM.

In the case of `CNC(=O)c1cc(Br)cc([N+](=O)[O-])c1N[C@@H]1CCCC[C@@H]1NC(=O)c1cc(=O)[nH]c2c(F)cccc12`, the CC50 at 24 h [1] is reported as over 200000 nM, the K [6] is reported as 7.5 10^5/M/s and the K [3] is reported as 0.018 s⁻¹. It also gave a Tmax [15] of 0.05 h, a half-life [16] of 2.31 h and a Cmax [17] of 63.6 ng/mL. It also gave an AUC(0-inf) [18] of 58.2 ng·h/mL, an AUC(0-t) [19] of 56.1 ng·h/mL and an MRT inf [20] of 1.56 h. For the same compound, the IC50 [2] was 57 nM and the Kd [5] was 23.6 nM.

In the case of `CN1CCN(C(=O)c2cc(Br)cc([N+](=O)[O-])c2N[C@@H]2CCC[C@@H]2NC(=O)c2cc(=O)[nH]c3ccccc23)CC1`, the IC50 [2] is reported as 22.9 nM.

In the case of `O=C(N[C@H]1CCC[C@H]1Nc1c(C(=O)N2CCOCC2)cc(C2CC2)cc1[N+](=O)[O-])c1cc(=O)[nH]c2c(F)cccc12`, the IC50 [2] is reported as 21.3 nM.

With `CNC(=O)c1cc(Br)cc([N+](=O)[O-])c1N[C@@H]1CCCC[C@@H]1NC(=O)c1cc(=O)[nH]c2cc(F)ccc12` the IC50 [2] was 105 nM.

With `O=C(NCCN1CCOCC1)C1CN(c2ccc(Cl)c(Cl)c2)CCN1C(=O)c1cc(=O)[nH]c2ccccc12` (configuration not stated) the IC50 [2] was 840 nM.

For `O=C(NCCC1CC1)C1CN(c2ccc(Cl)c(Cl)c2)CCN1C(=O)c1cc(=O)[nH]c2ccccc12` (configuration not stated), the IC50 [2] was 520 nM.
